Assay results taken from ChEMBL document CHEMBL1154999, “N-(2,2-Dimethyl-2-(2-nitrophenyl)acetyl)-4-aminocyclophosphamide as a potential bioreductively activated prodrug of phosphoramide mustard” (Bioorg Med Chem Lett, 2008).

Tests used:
Format in all cases: physicochemical
[1] = Chemical stability in sodium acetate buffer assessed as half life at pH 5.0 at 37 degC
[2] = Chemical stability in sodium phosphate buffer assessed as half life at pH 6.5 at 37 degC
[3] = Chemical stability in sodium acetate buffer assessed as half life at pH 4.0 at 37 degC
[4] = Chemical stability in sodium acetate buffer assessed as half life at pH 4.5 at 37 degC
[5] = Chemical stability in sodium phosphate buffer assessed as half life at pH 6.0 at 37 degC
[6] = Chemical stability in sodium acetate buffer assessed as half life at pH 5.6 at 37 degC
[7] = Chemical stability in sodium phosphate buffer assessed as half life at pH 7.4 at 37 degC
[8] = Chemical stability in sodium acetate buffer assessed as half life at pH 5.4 at 37 degC

CC(C)(C(=O)NC1CCOP(=O)(N(CCCl)CCCl)N1)c1ccccc1N (stereo not drawn)
half-life [1]: 9.8 min
half-life [2]: 19.3 min
half-life [3]: 3.2 min
half-life [4]: 4.9 min
half-life [5]: 12.6 min
half-life [6]: 27.2 min
half-life [7]: 53.7 min
half-life [8]: 17.5 min
